Measured values from patent US9693997B2, “Antiviral compounds” (priority 2013, dated 2017).
Where a name gives a salt, the structure may show the parent alone. Read-outs that look alike come from different tables or passages of the source.

What was measured:
[1] = system: pseudotyped VSV G particles (VSVpp) in Huh7-high CD81 cells; test: microbe, parasite or virus in culture; type: cell-based, vesicular stomatitis virus
[2] = system: Pseudotyped HCV GT1b particles (HCVpp), entry into Huh7-high CD81 cells; test: microbe, parasite or virus in culture; type: cell-based, HCV GT1b Con1 strain
[3] = Vesicular stomatitis virus, 72 h, read-out: VSVpp (EC50, μM)
[4] = Hepatitis C virus, GT1B, 72 h, read-out: HCVpp GT-1b (EC50, μM)

Which results are given for `Nc1nc(Nc2cc(Cl)c(-c3ccc(OCC(=O)O)cc3)c(Cl)c2)n[nH]1` [Compound 285, [4′-(5-Amino-1H-[1,2,4]triazol-3-ylamino)-2′,6′-dichloro-biphenyl-4-yloxy]-acetic acid]?
EC50 [1, 3]: > 10 µM; EC50 [2, 4]: 4.97 µM

Which results are given for `CC(C)(C)OC(=O)N1CCC[C@H]1COc1ccc(-c2c(Cl)cc(Nc3n[nH]c(N)n3)cc2Cl)cc1` [Compound 280, (S)-2-[4′-(5-Amino-1H-[1,2,4]triazol-3-ylamino)-2′,6′-dichloro-biphenyl-4-yloxymethyl]-pyrrolidine-1-carboxylic acid tert-butyl ester]?
EC50 [1, 3]: > 10 µM; EC50 [2, 4]: 0.401 µM

Which results are given for `Nc1nc(Nc2cc(Cl)c(-c3ccc(OCCN4CCOCC4)cc3)c(Cl)c2)n[nH]1` [Compound 281, N*3*-[2,6-Dichloro-4′-(2-morpholin-4-yl-ethoxy)-biphenyl-4-yl]-1H-[1,2,4]triazole-3,5-diamine]?
EC50 [1, 3]: 23.4 µM; EC50 [2, 4]: 0.244 µM

Which results are given for `N#Cc1ccc(-c2c(F)cc(Nc3nc(N)n[nH]3)cc2C(F)(F)F)cc1` [Compound 79, 4′-(5-Amino-2H-[1,2,4]-triazol-3-ylamino)-6′-fluoro-2′-trifluoromethyl-biphenyl-4-carbonitrile]?
EC50 [1, 3]: 8.11 µM; EC50 [2, 4]: 0.483 µM

With `COc1ccc(-c2c(Cl)cc(Nc3n[nH]c(N)n3)cc2C(F)(F)F)cc1C(F)(F)F` [Compound 231, N*3*-(6-Chloro-4′-methoxy-2,3′-bis-trifluoromethyl-biphenyl-4-yl)-1H-[1,2,4]triazole-3,5-diamine] as the compound, how does the EC50 [1, 3] read?
The EC50 was over 10 µM.

What about the EC50 [2, 4] of the same compound?
Its EC50 is 0.41 µM.

How did the EC50 [1, 3] turn out when `Nc1nc(Nc2cc(Cl)c(-c3ccc(S(=O)(=O)CCO)cc3)c(C(F)(F)F)c2)n[nH]1` [Compound 162, 2-[4′-(5-Amino-1H-[1,2,4]triazol-3-ylamino)-2′-chloro-6′-trifluoromethyl-biphenyl-4-sulfonyl]-ethanol] was run?
The EC50 was over 10 µM.

What about the EC50 [2, 4] of the same compound?
Its EC50 is 0.126 µM.

`CS(=O)(=O)Nc1cccc(-c2c(Cl)cc(Nc3n[nH]c(N)n3)cc2C(F)(F)F)c1` [Compound 290, N-(4′-(5-amino-1H-1,2,4-triazol-3-ylamino)-2′-chloro-6′-(trifluoromethyl)biphenyl-3-yl)methanesulfonamide] was tested. Which EC50 [1, 3] did it give?
The EC50 was 14.4 µM.

What about the EC50 [2, 4] of the same compound?
The EC50 was 0.149 µM.

How did the EC50 [1, 3] turn out when `CC1(C)CS(=O)(=O)c2cc(-c3c(Cl)cc(Nc4n[nH]c(N)n4)cc3Cl)ccc2O1` [Compound 52, N*3*-[3,5-Dichloro-4-(2,2-dimethyl-4,4-dioxo-3,4-dihydro-2H-4lambda*6*-benzo[1,4]oxathiin-6-yl)-phenyl]-1H-[1,2,4]triazole-3,5-diamine] was run?
Its EC50 is over 10 µM.

What about the EC50 [2, 4] of the same compound?
Its EC50 is 0.64 µM.

`Nc1nc(Nc2cc(Cl)c(-c3ccc(NC(=O)C4CCOCC4)cc3)c(Cl)c2)n[nH]1` [Compound 82, Tetrahydropyran-4-carboxylic acid-(4′-(5-amino-1H-[1,2,4]triazol-3-ylamino)-2′,6′-dichlorobiphenyl-4-yl)-amide] was tested. Which EC50 [1, 3] did it give?
Its EC50 is over 10 µM.

And the EC50 [2, 4]?
The EC50 was 0.39 µM.

How did the EC50 [1, 3] turn out when `CNS(=O)(=O)c1ccc(-c2c(F)cc(Nc3nc(N)n[nH]3)cc2C(F)(F)F)cc1` [Compound 72, 4′-(5-Amino-2H-[1,2,4]-triazol-3-ylamino)-6′-fluoro-2′-trifluoromethyl-biphenyl-4-sulfonic acid methylamide] was run?
Its EC50 is over 10 µM.

What about the EC50 [2, 4] of the same compound?
Its EC50 is 0.154 µM.

With `Nc1nc(Nc2cc(Cl)c(-c3ccc(OC[C@H]4CCCN4)cc3)c(Cl)c2)n[nH]1` [Compound 272, N*3*-[2,6-Dichloro-4′-((R)-1-pyrrolidin-2-ylmethoxy)-biphenyl-4-yl]-1H-[1,2,4]triazole-3,5-diamine] as the compound, how does the EC50 [1, 3] read?
The EC50 was 4.49 µM.

What about the EC50 [2, 4] of the same compound?
Its EC50 is 0.147 µM.

`Nc1nc(Nc2cc(Cl)c(-c3cccc(OC4CCNCC4)c3)c(C(F)(F)F)c2)n[nH]1` [Compound 41, N*3*-[2-Chloro-3′-(piperidin-4-yloxy)-6-trifluoromethyl-biphenyl-4-yl]-1H-[1,2,4]triazole-3,5-diamine; hydrochloride] was tested. Which EC50 [1, 3] did it give?
Its EC50 is over 10 µM.

What about the EC50 [2, 4] of the same compound?
The EC50 was 0.166 µM.

For `COCCOc1ccc(-c2c(Cl)cc(Nc3n[nH]c(N)n3)cc2Cl)cc1` [Compound 278, N*3*-[2,6-Dichloro-4′-(2-methoxy-ethoxy)-biphenyl-4-yl]-1H-[1,2,4]triazole-3,5-diamine], which EC50 [1, 3] is on record?
The EC50 was 5.31 µM.

And the EC50 [2, 4]?
The EC50 was 0.264 µM.

With `Nc1nc(Nc2ccc(-c3ccccc3F)c(Cl)c2)n[nH]1` [Compound 146, N*3*-(2-Chloro-2′-fluoro-biphenyl-4-yl)-1H-[1,2,4]triazole-3,5-diamine] as the compound, how does the EC50 [1, 3] read?
Its EC50 is 29.4 µM.

And the EC50 [2, 4]?
The EC50 was 2.88 µM.

For `Nc1n[nH]c(Nc2cc(F)c(-c3ccc(S(=O)(=O)N4CCOCC4)cc3)c(F)c2)n1` [Compound 77, N^5-(2,6-difluoro-4′-(morpholine-4-sulfonyl)biphenyl-4-yl)-1H-[1,2,4]-triazole-3,5-diamine], which EC50 [1, 3] is on record?
The EC50 was 24.7 µM.

And the EC50 [2, 4]?
The EC50 was 0.19 µM.

With `Nc1n[nH]c(Nc2cc(F)c(-c3ccc(S(=O)(=O)N4CCOCC4)cc3)c(C(F)(F)F)c2)n1` [Compound 78, N^5-[6-Fluoro-4′-(morpholine-4-sulfonyl)-2-trifluoromethylbiphenyl-4-yl]-1H-[1,2,4]-triazole-3,5-diamine] as the compound, how does the EC50 [1, 3] read?
The EC50 was 8.18 µM.

What about the EC50 [2, 4] of the same compound?
Its EC50 is 0.346 µM.

With `Nc1nc(Nc2cc(Cl)c(-c3ccc(S(=O)(=O)N4CC(F)(F)C4)cc3)c(C(F)(F)F)c2)n[nH]1` [Compound 224, N*3*-[6-Chloro-4′-(3,3-difluoro-azetidine-1-sulfonyl)-2-trifluoromethyl-biphenyl-4-yl]-1H-[1,2,4]triazole-3,5-diamine] as the compound, how does the EC50 [1, 3] read?
Its EC50 is 4.57 µM.

And the EC50 [2, 4]?
Its EC50 is 0.02 µM.

What does the source list for `Nc1nc(Nc2ccc(-c3ccccc3F)c(C(F)(F)F)c2)n[nH]1` [Compound 150, N*3*-(2′-Fluoro-2-trifluoromethyl-biphenyl-4-yl)-1H-[1,2,4]triazole-3,5-diamine]?
EC50 [1, 3]: 21.3 µM; EC50 [2, 4]: 0.866 µM

How did the EC50 [1, 3] turn out when `Nc1nc(Nc2cc(Cl)c(-c3ccc(OCC(O)CO)cc3)c(Cl)c2)n[nH]1` (stereo not shown) [Compound 282, 3-[4′-(5-Amino-1H-[1,2,4]triazol-3-ylamino)-2′,6′-dichloro-biphenyl-4-yloxy]-propane-1,2-diol-diamine] was run?
Its EC50 is 39.7 µM.

And the EC50 [2, 4]?
Its EC50 is 0.213 µM.

What does the source list for “4′-(5-amino-1H-1,2,4-triazol-3-ylamino)-2′-chloro-3-methoxy-N-(piperidin-4-yl)-6′-(trifluoromethyl)biphenyl-4-sulfonamide hydrochloride [Compound 178]”?
EC50 ([1]; read-out: VSVpp (EC50)): > 10 µM; EC50 ([2]; read-out: HCVpp GT-1b (EC50)): 0.023 µM

`CS(=O)(=O)Nc1ccc(-c2c(Cl)cc(Nc3n[nH]c(N)n3)cc2Cl)c(F)c1` [Compound 28, N-[4′-(5-Amino-1H-[1,2,4]triazol-3-ylamino)-2′,6′-dichloro-2-fluoro-biphenyl-4-yl]-methanesulfonamide] was tested. Which EC50 [1, 3] did it give?
The EC50 was 4.02 µM.

And the EC50 [2, 4]?
The EC50 was 0.083 µM.

Which results are given for `Nc1nc(Nc2cc(Cl)c(-c3ccc(OCCC4CCCN4)cc3)c(Cl)c2)n[nH]1` (stereo not shown) [Compound 264, N*3*-[2,6-Dichloro-4′-(2-pyrrolidin-2-yl-ethoxy)-biphenyl-4-yl]-1H-[1,2,4]triazole-3,5-diamine]?
EC50 [1, 3]: 6.5 µM; EC50 [2, 4]: 0.048 µM

What does the source list for `CS(=O)(=O)n1ccc2c(-c3c(Cl)cc(Nc4n[nH]c(N)n4)cc3Cl)cccc21` [Compound 15, N*3*-[3,5-Dichloro-4-(1-methanesulfonyl-1H-indol-4-yl)-phenyl]-1H-[1,2,4]triazole-3,5-diamine]?
EC50 [1, 3]: 0.23 µM; EC50 [2, 4]: 0.05 µM

`CC(C)(C)OC(=O)N1CC[C@H](Oc2ccc(-c3c(Cl)cc(Nc4n[nH]c(N)n4)cc3Cl)cc2)C1` [Compound 273, (S)-3-[4′-(5-Amino-1H-[1,2,4]triazol-3-ylamino)-2′,6′-dichloro-biphenyl-4-yloxy]-pyrrolidine-1-carboxylic acid tert-butyl ester] was tested. Which EC50 [1, 3] did it give?
Its EC50 is over 10 µM.

And the EC50 [2, 4]?
The EC50 was 0.28 µM.

Which EC50 [1, 3] does the source give for `CC(C)(C)OC(=O)N1CCCC(Oc2ccc(-c3c(Cl)cc(Nc4n[nH]c(N)n4)cc3C(F)(F)F)cc2)C1` (stereo not shown) [Compound 129, 3-[4′-(5-Amino-1H-[1,2,4]triazol-3-ylamino)-6′-chloro-2′-trifluoromethyl-biphenyl-4-yloxy]-piperidine-1-carboxylic acid tert-butyl ester] here?
Its EC50 is 9.62 µM.

What about the EC50 [2, 4] of the same compound?
The EC50 was 0.017 µM.

Which results are given for `Nc1nc(Nc2ccc(-c3ccccc3)c(C(F)(F)F)c2)n[nH]1` [Compound 149, N*3*-(2-Trifluoromethyl-biphenyl-4-yl)-1H-[1,2,4]triazole-3,5-diamine]?
EC50 [1, 3]: 29.2 µM; EC50 [2, 4]: 0.581 µM

What does the source list for `Nc1nc(Nc2cc(Cl)c(-c3ccc(S(=O)(=O)CC4CC4)cc3)c(C(F)(F)F)c2)n[nH]1` [Compound 64, N*3*-(6-Chloro-4′-cyclopropylmethanesulfonyl-2-trifluoromethyl-biphenyl-4-yl)-1H-1,2,4-triazole-3,5-diamine]?
EC50 [1, 3]: 9.54 µM; EC50 [2, 4]: 0.023 µM

What does the source list for `CS(=O)(=O)c1ccc(-c2c(Cl)cc(Nc3n[nH]c(N)n3)cc2Cl)cc1F` [Compound 121, N-3-(2,6-Dichloro-3′-fluoro-4′-methanesulfonyl-biphenyl-4-yl)-1H-[1,2,4]triazole-3,5-diamine]?
EC50 [1, 3]: 0.08 µM; EC50 [2, 4]: 0.068 µM

Which results are given for `CN1CCCC(Oc2ccc(-c3c(Cl)cc(Nc4n[nH]c(N)n4)cc3C(F)(F)F)cc2)C1` (stereo not shown) [Compound 132, N*3*-[6-Chloro-4′-(1-methyl-piperidin-3-yloxy)-2-trifluoromethyl-biphenyl-4-yl]-1H-[1,2,4]triazole-3,5-diamine hydrochloride]?
EC50 [1, 3]: 6.13 µM; EC50 [2, 4]: 0.088 µM

For `NC(=O)c1cccc(-c2c(Cl)cc(Nc3n[nH]c(N)n3)cc2Cl)c1` [Compound 158, 4′-(5-amino-1H-1,2,4-triazol-3-ylamino)-2′,6′-dichlorobiphenyl-3-carboxamide], which EC50 [1, 3] is on record?
Its EC50 is over 10 µM.

What about the EC50 [2, 4] of the same compound?
Its EC50 is 0.539 µM.

For `CS(=O)(=O)c1ccc(-c2ccc(Nc3n[nH]c(N)n3)cc2Cl)cc1` [Compound 154, N*3*-(2-Chloro-4′-methanesulfonyl-biphenyl-4-yl)-1H-[1,2,4]triazole-3,5-diamine], which EC50 [1, 3] is on record?
The EC50 was 16.4 µM.

And the EC50 [2, 4]?
The EC50 was 2.47 µM.

`Nc1nc(Nc2cc(Cl)c(-c3ccc(S(=O)(=O)N4CC(O)C4)cc3)c(C(F)(F)F)c2)n[nH]1` [Compound 191, 1-(4′-(5-amino-1H-1,2,4-triazol-3-ylamino)-2′-chloro-6′-(trifluoromethyl)biphenyl-4-ylsulfonyl)azetidin-3-ol] was tested. Which EC50 [1, 3] did it give?
The EC50 was 25 µM.

And the EC50 [2, 4]?
Its EC50 is 0.069 µM.
